Experimental data published in US8541029B2, “Article and method for focused delivery of therapeutic and/or diagnostic materials” (Armark Authentication Technologies, LLC, priority 2006, dated 2013).

Experiment: Isolated temperature response of component materials to microwave RF
Format: physicochemical
Settings: 130 Watts for 60 seconds; for P1 60 seconds ° F.: initial 68 ° F.
Protocol: The microcells were suspended as an aqueous sample while exposed to microwave RF. Both water and mineral oil were evaluated as a liquid medium to expose microcell samples. 500 milligram samples of each microcell component were dispersed in both water and mineral oil and exposed to 130 watts of microwave RF for 60 seconds to determine the preferred fluid medium to carry out the experiment.
Microwave RF exposure was performed in a Panasonic 1300 Watt Inverter Technology® Microwave Oven Model NN-SN667W at 130 Watts. The oven was retrofitted with all quartz platforms to reduce/eliminate dipole induction heating from standard glass structures. All containment and experimental material other than water or albumen in contact with the experimental samples was microwave transparent. Containment devices such as test tubes, slides, and cover slips were either quartz or microwave transparent plastics. Microwave oven use was limited to less than 90 minutes per test period to reduce/prevent incidental heating of the oven chamber. A 500 milliliter water “reservoir-load” was maintained within the oven chamber to absorb microwave energy and prevent magnetron damage. All tests were run in an environmentally-controlled room at about 65° F. (about 18.3° C.) and 50% RH.

ΔT ° F. (500 mg in 10 g Mineral Oil): 0 ° F.
P1 60 seconds ° F. (500 mg in 10 g Mineral Oil): 68 ° F.
ΔT ° F. (500 mg in 10 g Water): 22 ° F.
P1 60 seconds ° F. (500 mg in 10 g Water): 90 ° F.
SMILES: CC(=O)Nc1ccc(O)cc1 [Acetaminophen, acetaminophen]
